Earlier results as cited in patent US20190046468A1 (SUN PHARMACEUTICAL INDUSTRIES LIMITED, priority 2017, published 2019).

What was measured:
[1] = in vivo
[2] = aqueous media and many other solvents including acetone

plasma half-life [1]: about 1 hour
solubility [2]: freely soluble
Structure (SMILES): COc1ccccc1OCC(O)CO (centres unmarked) [Guaifenesin]
